Measurements published in patent US20070128217A1 (priority 2003, published 2007).

How the values were obtained:
[1] = system: rabbit serum obtained by immunizing a rabbit with the SARS-CoV strain Frankfurt 1; assay type: binding; design: Binding of a rabbit serum to linear peptides / Binding of a rabbit serum to looped peptides / Rabbit serum linear peptides / Rabbit serum looped peptides / Binding of a rabbit serum to linear peptides of protein N of SARS-CoV Urbani (Rabbit serum linear peptides) / Binding of a rabbit serum to looped/cyclic peptides of protein N of SARS-CoV Urbani (Rabbit serum looped peptides): unit not given here
[2] = system: recombinant human anti-SARS-CoV antibody 03-018; assay type: binding; design: Binding of antibody 03-018 to linear peptides of the N protein of SARS-CoV Urbani / Binding of antibody 03-018 to looped/cyclic peptides of the N protein of SARS-CoV Urbani: unit not given here
[3] = system: control sera (pooled serum of ten healthy LUMC hospital workers; commercial negative donor pooled serum from the Dutch bloodbank); assay type: binding, human; design: Binding of Control serum LUMC to linear peptides / Binding of Control serum Blood-bank to linear peptides / Binding of Control serum LUMC to looped peptides / Binding of Control Serum Blood-Bank to Looped peptides / Binding of Control serum LUMC to linear peptides of the protein M of SARS-CoV Urbani / Binding of Control serum Blood-bank to linear peptides of the protein M of SARS-CoV Urbani / Binding of Control serum LUMC to looped peptides of the protein M of SARS-CoV Urbani / Binding of Control Serum Blood-Bank to Looped peptides of the protein M of SARS-CoV Urbani: unit not given here
[4] = system: antibodies in sera from SARS patients (sera 1a, 1b, 2, 6, 37, 62, London, SARS-yellow, SARS-green); assay type: binding, human; design: Binding of serum 6 to linear peptides of protein X1 of SARS-CoV Urbani / Binding of serum 37 to linear peptides of protein X1 of SARS-CoV Urbani / Binding of serum 6 to looped/cyclic peptide (PEPSCAN-ELISA) / Binding of serum 37 to looped/cyclic peptide (PEPSCAN-ELISA) / Binding of serum 37 to looped/cyclic peptides of protein X1 of SARS-CoV Urbani / Binding of serum 6 to linear peptides of protein X2 / Binding of serum 37 to linear peptides of protein X2 / Binding of serum 37 to looped/cyclic peptides of protein X2 of SARS-CoV Urbani / Binding of serum 6 to linear peptides of protein M of SARS-CoV Urbani / Binding of serum 37 to linear peptides of protein M of SARS-CoV Urbani / Binding of serum 6 to looped/cyclic peptides of protein M of SARS-CoV Urbani / Binding of serum 37 to looped/cyclic peptides of protein M of SARS-CoV Urbani / Binding of serum 6 to linear peptides of protein X3 of SARS-CoV Urbani / Binding of serum 37 to linear peptides of protein X3 of SARS-CoV Urbani / Binding of serum 37 to looped/cyclic peptides of protein X3 of SARS-CoV Urbani / Binding of serum 6 to linear peptides of protein X4 of SARS-CoV Urbani / Binding of serum 37 to linear peptides of protein X4 of SARS-CoV Urbani / Binding of serum 37 to looped/cyclic peptides of protein X4 of SARS-CoV Urbani / Binding of serum 6 to linear peptides of protein X5 of SARS-CoV Urbani / Binding of serum 37 to linear peptides of protein X5 of SARS-CoV Urbani / Binding of serum 37 to looped/cyclic peptides of protein X5 of SARS-CoV Urbani / Binding of serum 6 to linear peptides of protein N of SARS-CoV Urbani / Binding of serum 37 to linear peptides of protein N of SARS-CoV Urbani / Binding of serum 6 to linear peptide (PEPSCAN-ELISA) / Binding of serum 1a to looped/cyclic peptides of protein N of SARS-CoV Urbani / Binding of serum 1b to looped/cyclic peptides of protein N of SARS-CoV Urbani / Binding of serum 2 to looped/cyclic peptides of protein N of SARS-CoV Urbani / Binding of serum 6 to looped/cyclic peptides of protein N of SARS-CoV Urbani / Binding of serum 37 to looped/cyclic peptides of protein N of SARS-CoV Urbani / Binding of serum 62 to looped/cyclic peptides of protein N of SARS-CoV Urbani / Binding of serum London to looped/cyclic peptides of protein N of SARS-CoV Urbani / Binding of serum SARS-green to looped/cyclic peptides of protein N of SARS-CoV Urbani: unit not given here

| Sequence | Binding of a rabbit serum to linear peptides of protein N of SARS-CoV Urbani (Rabbit serum linear peptides) [1] | Binding of a rabbit serum to looped/cyclic peptides of protein N of SARS-CoV Urbani (Rabbit serum looped peptides) [1] | Binding of antibody 03-018 to linear peptides of the N protein of SARS-CoV Urbani [2] | Binding of antibody 03-018 to looped/cyclic peptides of the N protein of SARS-CoV Urbani [2] | Binding of Control Serum Blood-Bank to Looped peptides [3] | Binding of Control serum Blood-bank to linear peptides [3] | Binding of Control serum LUMC to linear peptides [3] | Binding of Control serum LUMC to looped peptides [3] | Binding of serum 1a to linear peptide (PEPSCAN-ELISA) [4] | Binding of serum 1a to looped/cyclic peptides of protein N of SARS-CoV Urbani [4] | Binding of serum 1b to linear peptide (PEPSCAN-ELISA) [4] | Binding of serum 1b to looped/cyclic peptides of protein N of SARS-CoV Urbani [4] | Binding of serum 2 to linear peptide (PEPSCAN-ELISA) [4] | Binding of serum 2 to looped/cyclic peptides of protein N of SARS-CoV Urbani [4] | Binding of serum 6 to linear peptide (PEPSCAN-ELISA) [4] | Binding of serum 6 to looped/cyclic peptides of protein N of SARS-CoV Urbani [4] | Binding of serum 37 to linear peptide (PEPSCAN-ELISA) [4] | Binding of serum 37 to looped/cyclic peptides of protein N of SARS-CoV Urbani [4] | Binding of serum 62 to linear peptide (PEPSCAN-ELISA) [4] | Binding of serum 62 to looped/cyclic peptides of protein N of SARS-CoV Urbani [4] | other results |
| --- | --- | --- | --- | --- | --- | --- | --- | --- | --- | --- | --- | --- | --- | --- | --- | --- | --- | --- | --- | --- | --- |
| SRSSSRSRGNSRNST | 0.1 | 0.3 | 0.1 | 0.2 | 0.6 | 0.7 | 0.7 | 0.6 | 0.2 | 0.3 | 0.1 | 0.2 | 0.2 | 0.3 | 0.2 | 0.3 | 0.4 | 0.5 | 0.6 | 0.4 | Binding of serum London to linear peptide (PEPSCAN-ELISA) [4]: 0.4; Binding of serum London to looped/cyclic peptides of protein N of SARS-CoV Urbani [4]: 0.4; Binding of serum SARS-green to linear peptide (PEPSCAN-ELISA) [4]: 0.2; Binding of serum SARS-green to looped/cyclic peptides of protein N of SARS-CoV Urbani [4]: 0.2; Binding of serum SARS-yellow to linear peptide (PEPSCAN-ELISA) [4]: 0.7; Binding of serum SARS-yellow to looped/cyclic peptides of protein N of SARS-CoV Urbani [4]: 0.4 |
| SSRGNSPARMASGGG | 0.2 | 0.0 | 0.1 | 0.2 | 0.8 | 0.8 | 0.9 | 0.9 | 0.4 | 0.4 | 0.3 | 0.2 | 0.2 | 0.5 | 0.2 | 0.4 | 0.5 | 0.4 | 0.6 | 0.5 | Binding of serum London to linear peptide (PEPSCAN-ELISA) [4]: 0.5; Binding of serum London to looped/cyclic peptides of protein N of SARS-CoV Urbani [4]: 0.8; Binding of serum SARS-green to linear peptide (PEPSCAN-ELISA) [4]: 1.0; Binding of serum SARS-green to looped/cyclic peptides of protein N of SARS-CoV Urbani [4]: 0.6; Binding of serum SARS-yellow to linear peptide (PEPSCAN-ELISA) [4]: 0.7; Binding of serum SARS-yellow to looped/cyclic peptides of protein N of SARS-CoV Urbani [4]: 0.5 |
| SSRSRGNSRNSTPGS | 0.1 | 0.0 | 0.1 | 0.2 | 0.5 | 0.6 | 0.5 | 0.5 | 0.8 | 0.3 | 0.5 | 0.1 | 0.1 | 0.3 | 0.2 | 0.1 | 0.6 | 0.4 | 0.5 | 0.3 | Binding of serum London to linear peptide (PEPSCAN-ELISA) [4]: 0.4; Binding of serum London to looped/cyclic peptides of protein N of SARS-CoV Urbani [4]: 0.3; Binding of serum SARS-green to linear peptide (PEPSCAN-ELISA) [4]: 0.1; Binding of serum SARS-green to looped/cyclic peptides of protein N of SARS-CoV Urbani [4]: 0.0; Binding of serum SARS-yellow to linear peptide (PEPSCAN-ELISA) [4]: 0.5; Binding of serum SARS-yellow to looped/cyclic peptides of protein N of SARS-CoV Urbani [4]: 0.1 |
| SSRSSSRSRGNSRNS | 0.2 | 0.7 | 0.1 | 0.2 | 0.7 | 0.7 | 0.7 | 0.7 | 0.2 | 0.3 | 0.1 | 0.3 | 0.2 | 0.4 | 0.2 | 0.3 | 0.5 | 0.5 | 0.6 | 0.6 | Binding of serum London to linear peptide (PEPSCAN-ELISA) [4]: 0.5; Binding of serum London to looped/cyclic peptides of protein N of SARS-CoV Urbani [4]: 0.5; Binding of serum SARS-green to linear peptide (PEPSCAN-ELISA) [4]: 0.3; Binding of serum SARS-green to looped/cyclic peptides of protein N of SARS-CoV Urbani [4]: 0.3; Binding of serum SARS-yellow to linear peptide (PEPSCAN-ELISA) [4]: 0.7; Binding of serum SARS-yellow to looped/cyclic peptides of protein N of SARS-CoV Urbani [4]: 0.4 |
| SSSRSRGNSRNSTPG | 0.1 | 0.4 | 0.1 | 0.2 | 0.5 | 0.7 | 0.6 | 0.5 | 0.4 | 0.2 | 0.2 | 0.1 | 0.2 | 0.3 | 0.1 | 0.2 | 0.5 | 0.4 | 0.5 | 0.3 | Binding of serum London to linear peptide (PEPSCAN-ELISA) [4]: 0.5; Binding of serum London to looped/cyclic peptides of protein N of SARS-CoV Urbani [4]: 0.3; Binding of serum SARS-green to linear peptide (PEPSCAN-ELISA) [4]: 0.2; Binding of serum SARS-green to looped/cyclic peptides of protein N of SARS-CoV Urbani [4]: 0.1; Binding of serum SARS-yellow to linear peptide (PEPSCAN-ELISA) [4]: 0.6; Binding of serum SARS-yellow to looped/cyclic peptides of protein N of SARS-CoV Urbani [4]: 0.1 |
